Bridge positions count the residues as written; N and C are the ends. Ends that are not written are not given here. I, II: the chains in the order shown.

The subject of one assay is H3N2 virus. As to the kind of experiment: Plaque assay, H3N2 in MDCK cells. It is filed as cell-based, influenza H3N2 virus. To be noted: plaque number normalized to untreated virus, Fig. S2. How it is done: The antiviral activity of peptides was measured by plaque reduction assay. Briefly, peptides were dissolved in PBS or 20% PBS. Peptides (0.2-25.0 µg mL^−1) were premixed with H1N1 virus at room temperature. After 30 min of incubation, the peptide-virus mixture was transferred to MDCK cells for infection at 37°C. At 1 hpi, infectious media were removed, and then 1% low melting agar was added to cells. Cells were fixed using 4% formalin at 2–3 dpi. […] (0.1%) was added to cells for cell staining to count viral plaques.
Fig. S2. The antiviral activity of 4H30 against H3N2 virus in MDCK cells. H3N2 virus was treated with the indicated concentrations of 4H30 to infect MDCK cells. The percentage (%) was the plaque number of virus treated with 4H30 normalized to virus without treatment (0).

Assay [1] relates to H1N1 virus. It is filed as cell-based, influenza H1N1 virus.
The subject of assay [2] is H1N1 virus. Put plainly: Viral attachment assay, H1N1 on MDCK cells. The assay is classed as cell-based, influenza H1N1 virus. As for the experimental part: Viruses (H1N1 or rhinovirus A1) were treated with DMEM, 4H30 (25 µg mL^−1), or an influenza neutralization antibody at room temperature for 30 min and then added to cells for attachment at 4°C for 1 h. After washing the unbound virus, the attached virus on cells was measured by RT-qPCR. At least two experiments with biological duplication samples were included for each treatment.
MDCK cells were treated by ChABC (Sigma, Cat^# C2905, 1 U mL^−1), Hase I–III (Sigma, Cat^# H3917, 100 mU mL^−1), and Hase II (Sigma, Cat^# H6515, 100 mU mL^−1) at 37°C for 2 h in the buffer according to the manufacturer’s instruction. After washing cells with PBS, MEM or 4H30 (25 µg mL^−1) was added to cells for 30 min incubation, and then cells were washed with PBS. H1N1 (MOI = 1.0) was added to cells for attachment at 4°C for 1 h. The unbound virus was washed with PBS. The concentration of the attached virus was measured by RT-qPCR.

Assay [3] deals with H1N1 virus. It is filed as cell-based, influenza H1N1 virus. The source holds these as a separate data set.
The next assay addresses Influenza HA (Influenza A virus, UniProt C3W5S1). As to the kind of experiment: ELISA binding assay, HA. The settings on record: 4H30 1 µg coated, HA 100 ng, anti-His antibody, Fig. 2a. How it is done: Peptides (1.0 µg per well) were dissolved in H2O. Influenza HA, NA (Sino, Cat^# 11058-V07B), or LDLR (Sino, Cat^# 10231-H081-50, 100 ng) dissolved in PBS was coated onto ELISA plates, incubated at 4°C overnight, and blocked with BSA at 4°C overnight. HA or VP1 was added to wells for binding and then determined by incubation with goat anti-His-HRP (Invitrogen, Cat^# R93125, 1: 2,000) at 37°C for 30 min. The reaction was developed by adding 100 µL of the TMB single solution (Life Technologies, Cat^# 002023) for 15 min at 37°C and stopped with 50 µL of 1 M H2SO4. Readings were obtained in an ELISA plate reader (Victor 1420 Multilabel Counter; PerkinElmer) at 450 nm.

The next assay has as its system A(H1N1)pdm09 virus. Further details: species or system BALB/c mice. To be noted: mouse, in vivo.
In assay [4] the test system is rhinovirus A1. It is filed as cell-based.
Assay [5] concerns rhinovirus A1. The assay is classed as cell-based. The source holds these as a separate data set.
Assay [6] deals with rhinovirus A1. As to the kind of experiment: Anti-rhinovirus assay in nasal organoids. It is filed as cell-based. The settings on record: 4H30 25 µg mL^−1; viral loads in supernatants at 24, 48 and 72 hpi; RT-qPCR; Fig. 5b. As for the experimental part: Organoid culture was established according to previous studies ([28], [29]). When the cells differentiated into mature 2D airway organoids within 12–14 days, the 2D organoids were ready for antiviral experiments. Rhinovirus (5000 TCID50) was mixed with peptide (25 µg mL^−1) or without peptides in culture media for organoid infection. After 2 h infection, we removed the infectious media and added fresh media with or without peptides. The supernatants were collected at 2 hpi, 24 hpi, 48 hpi, and 72 hpi to measure the viral loads by RT-qPCR.
Fig 5 4H30 inhibited rhinovirus replication in nasal organoids and cardiomyocytes. (a) Rhinovirus A1 could not replicate efficiently in mice. Rhinovirus (1 × 10^7 TCID50) was intranasally inoculated to mice. Viral RNAs were measured on day 1, day 2, and day 3 post-infection. […] (c) Rhinovirus A1 (0.01 MOI) could effectively replicate in cardiomyocytes. […] Viral RNAs in the cell supernatants were measured by RT-qPCR at the indicated time points. Data are presented as mean ± SD of indicated biological samples.

Assay [7] relates to rhinovirus A1. Put plainly: Anti-rhinovirus assay in cardiomyocytes (hIPSC-CMs). The assay is classed as cell-based. The settings on record: 4H30 25 µg mL^−1; supernatants at 48 hpi; compared to DMEM- and P9RS-treated controls; Fig. 5d. The text has this:
Cardiomyocytes are generated from human-induced pluripotent stem cells (iPSCs) as we had previously published ([22], [23]). Initially, IMR90 iPSCs are maintained in 12-well plates pre-coated with Matrigel (Thermo Fisher Scientific, USA) using StemFlex Medium (Thermo Fisher Scientific, USA). Subsequently, differentiation into cardiomyocytes is induced with the STEMdiff Ventricular Cardiomyocyte Differentiation Kit (Stem Cell Technologies, USA). This involves the sequential addition of Supplement A from days 1 to 2, Supplement B from days 3 to 4, and Supplement C from days 5 to 8 to cardiomyocyte differentiation basal medium. From day 9 onward, cardiomyocytes are sustained in cardiomyocyte maintenance basal medium with supplement (Stem Cell Technologies, USA). Lactate purification of cardiomyocytes is performed on days 11 to 12. Standard immunofluorescence staining with α-actinin and electrophysiology analysis by the patch clamping technique was performed to confirm their cardiomyocyte phenotype. To infect the cells, Rhinovirus A1 (0.025 TCID50) was treated with or without peptide in the media for infection. […]
Fig 5 4H30 inhibited rhinovirus replication in nasal organoids and cardiomyocytes. […] Viral RNAs were measured on day 1, day 2, and day 3 post-infection. […] Viral RNAs in the cell supernatants were measured by RT-qPCR at the indicated time points. […]

For assay [8], the system named is HA-mediated cell-cell fusion (pH7N7-HA). To be noted: 125 µg mL^−1, 293T cells, pH 5.0, Fig. 2b.

Influenza HA, sequence (C3W5S1 entry or part of it, added parts left off): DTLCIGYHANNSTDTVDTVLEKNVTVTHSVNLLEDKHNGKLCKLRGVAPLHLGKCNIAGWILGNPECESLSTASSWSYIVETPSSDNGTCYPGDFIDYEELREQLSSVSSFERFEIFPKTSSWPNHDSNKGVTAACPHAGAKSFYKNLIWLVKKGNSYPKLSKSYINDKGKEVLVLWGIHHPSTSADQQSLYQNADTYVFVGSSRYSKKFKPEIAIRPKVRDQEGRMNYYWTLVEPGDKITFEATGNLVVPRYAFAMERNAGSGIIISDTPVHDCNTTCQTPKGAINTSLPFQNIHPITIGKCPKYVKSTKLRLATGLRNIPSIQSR

Consider “I: GAICHPVFCPRRYKQIGTCGLPGTKCCKKPKK / II: GAICHPVFCPRRYKQIGTCGLPGTKCCKKPK / III: GAICHPVFCPRRYKQIGTCGLPGTKCCKKP / IV: GAICHPVFCPRRYKQIGTCGLPGTKCCKKP (amide I:31-IV:C, I:32-II:C, II:31-III:C; cysteines drawn unpaired) [4H30]”, for which, in the assay with H3N2 virus, the “inhibition of H3N2 virus infection” value is given as “significantly inhibited group 2 influenza H3N2 virus infection”. The “H1N1 entry into cells” value in the assay with H1N1 virus [1] is recorded as “prevented viral entry into cells”. In the assay on H1N1 virus [2] (4H30 25 µg mL^−1, attachment at 4°C, RT-qPCR, Fig. 1d), the “H1N1 attachment to MDCK cells” value is reported as “increased the viral attachment to cells”. For the same substance, the “4H30-induced increase in H1N1 attachment after removal of cellular GAGs” value in the assay with H1N1 virus [2] (MDCK cells treated with Hase and ChABC, 4H30 25 µg mL^−1, attachment at 4°C, Fig. 2d) was “significantly reduced when cells were treated with enzymes of Hase and ChABC”. Also, in the assay with H1N1 virus [3], the “H1N1 viral release, supernatant virus at 8 hpi” value is listed as “significantly inhibited H1N1 viral release from cells”; the “H1N1 viral release, supernatant virus at 18 hpi” value was “inhibited viral release at 18 hpi”; the “inhibition of viral release after removal of GAGs” value is listed as “removal of GAGs reduced the activity of 4H30 in inhibiting viral release”; the “viral HA on cell membrane, anti-HA staining at 18 hpi” value was “more viral HA was detected on the cell membrane”. Further, on Influenza HA, the “binding to HA protein” value is given as “bound to HA protein”. Also, the “survival of mice after lethal H1N1 challenge (protected mice)” value with A(H1N1)pdm09 virus is reported as 5/6. Also, in the assay with A(H1N1)pdm09 virus (0.5 mg/kg), the “body weight loss of H1N1-infected mice” value was “significantly reduced body weight loss” and the “viral loads in the lungs on day 2 post-infection” value is “significantly inhibited H1N1 viral replication in mouse lungs”. Besides, in the assay with rhinovirus A1 [4], the rhinovirus entry result was “blocked rhinovirus entry on the cell membrane”. The “rhinovirus release from RD cells” value with rhinovirus A1 [5] was “did not inhibit viral release”. In addition, the “rhinovirus replication in nasal organoids” value with rhinovirus A1 [6] is recorded as “significantly inhibited rhinovirus replication in nasal organoids”. The “rhinovirus replication in hIPSC-CMs” value with rhinovirus A1 [7] is “significantly inhibited viral replication in hIPSC-CMs”. Further, in assay [8], the “inhibition of HA-mediated cell-cell fusion induced by low pH” value is recorded as “did not effectively block HA-mediated cell-cell fusion”.

The record behind these values is article PMC12326976 (Antimicrobial Agents and Chemotherapy, 2025).
